Columns and labels:
Experiment in all cases: size exclusion chromatography
Format in all cases: binding
SsoVps4 [1] = biological target: T1, SsoVps4 (Saccharolobus solfataricus, UniProt Q97ZJ7); settings: 2 mM MgCl2, pH 7.4, 4 °C; 1 mM ADP
T1 sequence (Q97ZJ7 1-372): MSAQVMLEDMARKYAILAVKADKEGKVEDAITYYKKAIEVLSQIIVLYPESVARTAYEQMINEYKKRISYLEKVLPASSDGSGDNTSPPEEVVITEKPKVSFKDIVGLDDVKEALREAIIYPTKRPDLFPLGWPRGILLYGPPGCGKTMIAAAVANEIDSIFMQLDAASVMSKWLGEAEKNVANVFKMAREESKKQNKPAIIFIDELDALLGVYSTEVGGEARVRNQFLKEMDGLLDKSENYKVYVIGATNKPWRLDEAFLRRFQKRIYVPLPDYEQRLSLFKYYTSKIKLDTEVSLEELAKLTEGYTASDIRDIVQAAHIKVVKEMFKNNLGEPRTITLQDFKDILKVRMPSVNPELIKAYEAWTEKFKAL

SsoVps4 [2] = biological target: SsoVps4 (Saccharolobus solfataricus, UniProt Q97ZJ7, E206Q); settings: 2 mM MgCl2, pH 7.4, 4 °C, Walker B mutant
Vps4p = biological target: T2, Vps4p (Saccharomyces cerevisiae, UniProt P52917, E233Q); settings: 2 mM MgCl2, pH 7.4, 4 °C; 1 mM ATP; Walker B mutant
T2 sequence (P52917 1-437 E233Q): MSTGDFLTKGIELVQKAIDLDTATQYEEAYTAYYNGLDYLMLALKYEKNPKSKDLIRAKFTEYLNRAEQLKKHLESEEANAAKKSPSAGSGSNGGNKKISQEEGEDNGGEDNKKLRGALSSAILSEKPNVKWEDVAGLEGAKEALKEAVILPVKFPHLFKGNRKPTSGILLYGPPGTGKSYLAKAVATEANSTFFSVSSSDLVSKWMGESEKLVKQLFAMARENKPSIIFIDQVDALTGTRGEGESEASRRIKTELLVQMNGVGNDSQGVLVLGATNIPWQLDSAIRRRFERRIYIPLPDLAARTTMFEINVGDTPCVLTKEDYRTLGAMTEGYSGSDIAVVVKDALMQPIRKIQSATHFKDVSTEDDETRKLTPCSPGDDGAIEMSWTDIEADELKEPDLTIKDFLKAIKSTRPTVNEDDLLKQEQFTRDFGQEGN

| Structure (SMILES) | size exclusion chromatography (nucleotide-induced shift of oligomer) (SsoVps4 [1]) | size exclusion chromatography (nucleotide-induced shift of oligomer) (SsoVps4 [2]; 1 mM ADP) | size exclusion chromatography (nucleotide-induced shift of oligomer) (SsoVps4 [2]; 1 mM ATP) | size exclusion chromatography (nucleotide-bound oligomer) (Vps4p) |
| --- | --- | --- | --- | --- |
| Nc1ncnc2c1ncn2[C@@H]1O[C@H](COP(=O)(O)OP(=O)(O)O)[C@@H](O)[C@H]1O [ADP] | both proteins migrated slightly more rapidly when bound to ADP than ATP | both wild type and E206Q SsoVps4 eluted as lower molecular weight complexes |  |  |
| Nc1ncnc2c1ncn2[C@@H]1O[C@H](COP(=O)(O)OP(=O)(O)OP(=O)(O)O)[C@@H](O)[C@H]1O [ATP] |  |  | both wild type and E206Q SsoVps4 eluted as lower molecular weight complexes | ATP-bound Vps4p(E233Q) migrated more rapidly than the wild type protein |

Source: PMC3919030 (Journal of molecular biology, 2013)
